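Five concentrations, 48 hours, 96-well plates. GI50 marks 50% less growth. At the TGI there is no net growth.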
What was measured:
Assay in all cases: NCI-60 cell line screen, 48 h
[1] = test system: HOP-92 NSCLC
[2] = test system: TK-10 renal
[3] = test system: DU-145 prostate
[4] = test system: RPMI-8226 leukemia
[5] = test system: SK-MEL-5 melanoma
[6] = test system: UO-31 renal
[7] = test system: T-47D breast
[8] = test system: A549 NSCLC
[9] = test system: HCT-116 colon
[10] = test system: U251 CNS
[11] = test system: COLO 205 colon
[12] = test system: BT-549 breast
[13] = test system: SF-295 CNS
[14] = test system: MCF7 breast
[15] = test system: HL-60(TB) leukemia
[16] = test system: SNB-75 CNS
[17] = test system: MOLT-4 leukemia
[18] = test system: UACC-257 melanoma
[19] = test system: OVCAR-8 ovarian
[20] = test system: OVCAR-4 ovarian
[21] = test system: SN12C renal
[22] = test system: LOX IMVI melanoma
[23] = test system: RXF 393 renal
[24] = test system: SK-MEL-2 melanoma
[25] = test system: SNB-19 CNS
[26] = test system: IGROV1 ovarian
[27] = test system: ACHN renal
[28] = test system: SF-268 CNS
[29] = test system: 786-0 renal
[30] = test system: MDA-MB-231 breast
[31] = test system: HCC-2998 colon
[32] = test system: MALME-3M melanoma
[33] = test system: MDA-MB-435
[34] = test system: NCI-H460 lung
[35] = test system: NCI-H522 lung
[36] = test system: HS 578T breast
[37] = test system: NCI-H226 lung
[38] = test system: HT29 colon
[39] = test system: SK-OV-3 ovarian
[40] = test system: OVCAR-5 ovarian
[41] = test system: SF-539 CNS
[42] = test system: NCI/ADR-RES ovarian
[43] = test system: PC-3 prostate
[44] = test system: CAKI-1 renal
[45] = test system: EKVX NSCLC
[46] = test system: K-562 leukemia
[47] = test system: SW-620 colon
[48] = test system: SK-MEL-28 melanoma
[49] = test system: NCI-H23 lung
[50] = test system: KM12 colon
[51] = test system: HCT-15 colon
[52] = test system: UACC-62 melanoma
[53] = test system: CCRF-CEM leukemia
[54] = test system: A498 renal
[55] = test system: HOP-62 NSCLC
[56] = test system: OVCAR-3 ovarian
[57] = test system: M14 melanoma
[58] = test system: SR leukemia

CCCCC(CCCCCC(CCCC)C1NC(C)Cc2cc(OC)c(OC)cc21)C1NC(C)Cc2cc(OC)c(OC)cc21 (centres undefined) gave a GI50 [1] of 1.06 µM, a TGI [1] of 2.58 µM and a GI50 [2] of 1.75 µM. The TGI [2] was 3.22 µM, the GI50 [3] was 1.8 µM and the TGI [3] was 3.23 µM. It also gave a GI50 [4] of 1.99 µM, a TGI [4] of 4.43 µM and a GI50 [5] of 1.52 µM. The TGI [5] was 2.85 µM, the GI50 [6] was 1.67 µM and the TGI [6] was 3.73 µM. For the same compound, the GI50 [7] was 1.6 µM, the TGI [7] was 3.11 µM and the GI50 [8] was 1.57 µM. The TGI [8] was 3.02 µM, the GI50 [9] was 1.49 µM and the TGI [9] was 2.96 µM. The GI50 [10] was 1.29 µM, the TGI [10] was 2.63 µM and the GI50 [11] was 0.294 µM. For the same compound, the TGI [11] was 0.842 µM, the GI50 [12] was 1.79 µM and the TGI [12] was 3.26 µM. It also gave a GI50 [13] of 1.83 µM, a TGI [13] of 3.79 µM and a GI50 [14] of 1.19 µM. The TGI [14] was 2.52 µM, the GI50 [15] was 1.84 µM and the TGI [15] was 3.79 µM. For the same compound, the GI50 [16] was 1.28 µM, the TGI [16] was 2.57 µM and the GI50 [17] was 1.96 µM. For the same compound, the TGI [17] was 4.22 µM, the GI50 [18] was 1.71 µM and the TGI [18] was 3.22 µM. The GI50 [19] was 1.73 µM, the TGI [19] was 3.29 µM and the GI50 [20] was 1.45 µM. For the same compound, the TGI [20] was 2.76 µM, the GI50 [21] was 1.63 µM and the TGI [21] was 3.04 µM. The GI50 [22] was 1.32 µM, the TGI [22] was 2.68 µM and the GI50 [23] was 1.2 µM. The TGI [23] was 2.48 µM, the GI50 [24] was 2.25 µM and the TGI [24] was 3.88 µM. It also gave a GI50 [25] of 1.7 µM, a TGI [25] of 3.15 µM and a GI50 [26] of 1.94 µM. The TGI [26] was 4.26 µM, the GI50 [27] was 1.76 µM and the TGI [27] was 3.21 µM. For the same compound, the GI50 [28] was 1.64 µM, the TGI [28] was 3.08 µM and the GI50 [29] was 1.69 µM. For the same compound, the TGI [29] was 3.15 µM, the GI50 [30] was 1.28 µM and the TGI [30] was 2.6 µM. It also gave a GI50 [31] of 0.25 µM, a TGI [31] of 0.742 µM and a GI50 [32] of 1.9 µM. For the same compound, the TGI [32] was 3.94 µM, the GI50 [33] was 1.76 µM and the TGI [33] was 4.19 µM. It also gave a GI50 [34] of 1.45 µM, a TGI [34] of 2.97 µM and a GI50 [35] of 1.7 µM. It also gave a TGI [35] of 3.25 µM, a GI50 [36] of 1.43 µM and a TGI [36] of 3.6 µM. For the same compound, the GI50 [37] was 1.53 µM, the TGI [37] was 3.01 µM and the GI50 [38] was 0.34 µM. For the same compound, the TGI [38] was 1.19 µM, the GI50 [39] was 1.57 µM and the TGI [39] was 2.91 µM. The GI50 [40] was 1.82 µM, the TGI [40] was 3.25 µM and the GI50 [41] was 1.76 µM. For the same compound, the TGI [41] was 3.21 µM, the GI50 [42] was 1.61 µM and the TGI [42] was 3.07 µM. It also gave a GI50 [43] of 1.77 µM, a TGI [43] of 3.51 µM and a GI50 [44] of 1.72 µM. For the same compound, the TGI [44] was 3.71 µM, the GI50 [45] was 1.71 µM and the TGI [45] was 3.61 µM. The GI50 [46] was 0.328 µM, the TGI [46] was 1.18 µM and the GI50 [47] was 0.819 µM. The TGI [47] was 2.2 µM, the GI50 [48] was 1.6 µM and the TGI [48] was 2.95 µM. The GI50 [49] was 1.67 µM, the TGI [49] was 3.2 µM and the GI50 [50] was 1.57 µM. For the same compound, the TGI [50] was 3.06 µM, the GI50 [51] was 1.31 µM and the TGI [51] was 2.76 µM. For the same compound, the GI50 [52] was 1.67 µM, the TGI [52] was 3.05 µM and the GI50 [53] was 2.15 µM. The TGI [53] was 4.66 µM, the GI50 [54] was 1.41 µM and the TGI [54] was 2.73 µM. The GI50 [55] was 1.47 µM, the TGI [55] was 2.88 µM and the GI50 [56] was 1.83 µM. The TGI [56] was 3.27 µM, the GI50 [57] was 1.79 µM and the TGI [57] was 3.39 µM.

For Cc1ncc([N+](=O)[O-])n1CCn1ccnc1[N+](=O)[O-], the TGI [2] was 29 µM, the TGI [4] was over 100 µM and the TGI [5] was over 100 µM. For the same compound, the TGI [8] was over 100 µM, the TGI [9] was over 100 µM and the TGI [10] was over 100 µM. For the same compound, the TGI [13] was over 100 µM, the TGI [14] was over 100 µM and the TGI [15] was over 100 µM. For the same compound, the TGI [16] was over 100 µM, the TGI [17] was over 100 µM and the TGI [18] was over 100 µM. For the same compound, the TGI [19] was over 100 µM, the TGI [21] was over 100 µM and the TGI [24] was over 100 µM. For the same compound, the TGI [58] was over 100 µM, the TGI [27] was over 100 µM and the TGI [28] was over 100 µM. For the same compound, the TGI [29] was over 100 µM, the TGI [31] was over 100 µM and the TGI [32] was over 100 µM. For the same compound, the TGI [34] was over 100 µM, the TGI [35] was over 100 µM and the TGI [36] was over 100 µM. The TGI [37] was over 100 µM, the TGI [38] was over 100 µM and the TGI [40] was over 100 µM. It also gave a TGI [41] of over 100 µM, a TGI [43] of over 100 µM and a TGI [45] of over 100 µM. For the same compound, the TGI [46] was over 100 µM, the TGI [47] was over 100 µM and the TGI [48] was over 100 µM. The TGI [49] was over 100 µM, the TGI [50] was over 100 µM and the TGI [51] was over 100 µM. For the same compound, the TGI [53] was over 100 µM, the TGI [54] was over 100 µM and the TGI [55] was over 100 µM. For the same compound, the TGI [56] was over 100 µM.

Reference: PubChem BioAssay (NCI)
